Test results taken from patent publication US12201628B2, “Neuronal modulation” (priority 2013, dated 2025).
“Also recorded” adds a separate entry of the source.

Legend:
Format in all cases: in vivo, mice
[1] = test system: DREADDs (hM3D(Gq)) expressing VTA dopaminergic neurons; assay: C-fos staining of VTA neurons after CNO injection; settings: CNO 2.5 mg/kg, 90 min after injection
Protocol: Mice were anesthetized using a ketamine/xylazine mixture (ketamine 80 mg/kg; xylazine 15-20 mg/kg) diluted in sterile saline solution (NaCl 0.9%), before being fixed in the stereotactic frame (Stoelting, IL, US). The AAV8 virus, purchased from the vector core at the University of North Carolina, was used to induce Cre-dependent DREADD expression (AAV8-hSyn-DIO-hM3D(Gq)-mCherry), by injection of 0.7 μl into the right VTA region (anterior-posterior −3.2 mm; media-lateral 0.48 mm; dorsal-ventral 4.7 mm (mouse coordinates)). […] 30 days post surgery passed in order to assure the expression of DREADDs. […]
Validation of the virus injection site and evaluation of the DREADDs expression were performed by immunohistochemistry. […] The tissues were stained for TH with mouse anti-TH (1:200; Millipore) and the proportion of the DREADDs expressing cells (mCherry+) out of the total TH+ in the VTA was evaluated (1800 cells). […] The proportion of the c-fos+ cell nuclei from the total number of DREADDs-expressing cells was calculated. […] The quantification of double-positive cells was performed using Imaris Software.
Efficiency of the viral infection in the dopaminergic (TH+) VTA neurons was 58±4% (FIG. 6B). […] Neuronal activation was determined by C-fos staining, an immediate early activation marker. […]

[2] = test system: solid melanoma (B16) tumor and Lewis lung carcinoma (LLC); assay: Tumor growth after VTA dopaminergic neuron activation
Protocol: For the expression of DREADDs, injected Cre-dependent adeno-associated virus (AAV) vector expressing DREADDs fused with red fluorescent protein mCherry, was injected into the VTA of tyrosine hydroxylase (TH)-Cre transgenic mice.
Then the mice were challenged with 500×10^3 LLC cells (Lewis Lung carcinoma Cells) or 200×10^3 B16 melanoma tumor cells (gently injected subcutaneously into the middle right flank of each animal).
28 days from the tumor cells injection a group of the tumor-bearing animals were euthanized to dissect the tumor tissue and check for metastasis (FIG. 12). The spleen bone marrow and tumors were isolated to characterize the changes in immune cells. The CyTOF was used to analyze the immune system as well as FACS analysis.

[3] = test system: immune cell clusters (CD45+ cells); assay: CyTOF mass cytometry of blood and spleen with Citrus analysis; settings: 24 h after CNO, VTA-activated vs control
Protocol: Two weeks after completion of the behavioral testing, mice were injected intraperitoneally with CNO and anesthetized 24 hours thereafter. Spleens and blood samples were collected. Spleens were dissociated into single-cell suspensions in 2% fetal bovine serum (Biological Industries, IL) and mesh filtered to remove clumps and debris. Blood samples were collected into heparin-coated sterile test tubes. Both the blood and the spleen cell suspensions were lysed with red blood cell lysis buffer (BD Biosciences, NJ, US). Cells ([…]) from each tissue were stained, for 1 hour at room temperature, with a mixture of metal tagged antibodies recognizing CD45, CCR3, CD80, GR1, CD86, CD19, CD4, CD45R, CD152, CD138, CD8, NK1.1, CD27, CD206, CD25, CD14, CD11c, CD49b, CD34, CD69, CD123, TCRβ, CCR7, CD28, CD115, CD133, TLR4, CD117, CD79b, CD62L, CD44, CD45RA, CD1d, IAIE, CD5, and CD11b. All antibodies were conjugated using the MAXPAR reagent (Fluidigm Inc.), with Rhodium and Iridium intercalators used to identify live/dead cells. Cells were washed twice with PBS, fixed in 1.6% formaldehyde (Sigma-Aldrich, St. Louis, MO) for 1 hour, washed again in ultrapure H2O and subjected to CyTOF mass cytometry analysis on a CyTOF I machine, with cell events acquired at approximately 500 events per second. In addition, each sample was spiked with internal metal isotope bead standards, which then was used for sample normalization by CyTOF software (Fluidigm). Acquired data was then uploaded to a Cytobank web server (Cytobank Inc.) for data processing and gating out of dead cells and normalization beads. Data was transformed using an arc sin h (X/5) transformation.
Differences in cell subset abundance and functional marker expression between VTA activated and control mice, were identified using the Citrus algorithm, a clustering and differential detection algorithm especially suited for high dimensional cytometry data (2). Twenty FCS files of normalized, live cell/no beads samples (Five VTA activated mice spleens, five VTA activated mice blood samples, 5 control mice spleen and five control mice blood) were each randomly sampled for 40,000 single cell events each. Briefly, Citrus performs three steps to identify cell subsets and differences between groups: First, collected single cell events are pooled together and iteratively hierarchically clustered using a subset of the measured channels for clustering (See Table 1 for a list of 23 clustering markers), yielding overlapping clusters with the ultimate cluster being one encompassing all sampled events. Second, the pooled dataset is split back into its constituting samples and the relative abundance of cells in each cluster is computed, as well as the median values of each functional marker (see Table 1 for a list of functional markers). Only cell clusters whose total abundance in one or more of the measured samples was greater than 1% of the total measured sample was retained for downstream analysis, yielding a total of 151 clusters. Third, the Citrus implementation of the SAM algorithm was applied, to identify, separately, differences in cell subset abundances and medians between VTA activated and control mouse samples at a predetermined FDR of 5%. Beyond this, an additional criteria for calling differences was employed, by performing a Mann-Whitney non-parametric test of significance on each cluster found to be different between VTA activated and control and requiring that it meet a p-value <0.05 criteria. Manual inspection of Citrus output was used to identify the closest known gross-cell type, matching the 23 combination clustering marker panel. A similar procedure analysis procedure was performed for 6-OHDA samples versus control. […]

SMILES: C[N+]1([O-])CCN(C2=Nc3cc(Cl)ccc3Nc3ccccc32)CC1 [CNO, clozapine-N-oxide]
- C-fos expression in DREADDs-infected cells ([1]; VTA-activated (hM3D(Gq)) mice): 42±0.5%
- C-fos expression in virus infected cells ([1]; control mice (sham mCherry virus without DREADDs)): 3±1%
- tumor weight / size (B16 melanoma) ([2]; CNO daily, two sessions of three days, Gq group vs control): Reduced tumor size
- reduction in tumor size ([2]; VTA-activated vs control mice, B16 melanoma and LLC): over 40%
- abundance of CD11b+Gr1+ MDSCs ([2]; VTA-activated vs control mice, spleen, bone marrow and tumor): significant reduction in the abundance; also recorded: reduced abundance of MDSCs
- abundance of B-cell subsets ([3]; blood and spleen): decreased in abundance
- CD1d levels on APC subsets (granulocytes, NK cells, monocyte/macrophages) ([3]; blood): reduced
- CD25, CD69 and CD206 expression ([3]; spleen): upregulation
- CD80 and CD86 expression ([3]; spleen): Upregulation
- CD1d expression ([3]; spleen): downregulation
